One series deals with P. berghei liver stages. Description: In vitro activity against the liver stage of Plasmodium infection (luciferase assay in Huh7 cells). Format: cell-based, Plasmodium berghei. The settings on record: for anti-Plasmodium activity (in words): P. berghei liver stages in Huh7 cells. As to the method: FIG. 6: Compound activity against P. berghei liver stages. Anti-Plasmodial activity (infection axis, bars) and toxicity to hepatoma cells (cell confluency axis, circles) are shown. Infection loads of Huh7 cells, a human hepatoma cell line, were determined by bioluminescence measurements of cell lysates 48 h after infection with luciferase-expressing P. berghei parasites. Luciferase assay in 96 well-plate; 10 000 Huh7 cells/well+10 000 PbA-LuciGFPcon spz/well.
In an embodiment, the in vitro activity against the liver stage of Plasmodium infection was also carried out: inhibition of liver stage Plasmodium infection by test compounds was determined by measuring the luminescence intensity in Huh-7 cells infected with a firefly luciferase-expressing P. berghei line, as previously described. Briefly, Huh-7 cells, a human hepatoma cell line, were cultured in 1640 RPMI medium supplemented with 10% v/v fetal bovine serum, 1% v/v nonessential amino acids, 1% v/v penicillin/streptomycin, 1% v/v glutamine, and 10 mM 4-(2-hydroxyethyl)-1-piperazineethanesulfonic acid (HEPES), pH 7, and maintained at 37° C. with 5% CO2. For infection assays, Huh-7 cells (1.0×10^4 per well) were seeded in 96-well plates the day before drug treatment and infection. The medium was replaced by medium containing the appropriate concentration of each compound approximately 1 h prior to infection with sporozoites freshly obtained through disruption of salivary glands of infected female Anopheles stephensi mosquitoes. Sporozoite addition was followed by centrifugation at 1700×g for 5 min. Parasite infection load was measured 48 h after infection by a bioluminescence assay (Biotium). The effect of the compounds on the viability of Huh-7 cells was assessed by the AlamarBlue assay (Invitrogen, U.K.) using the manufacturer's protocol.

Series [1] concerns Bacillus subtillis ATCC 6633. The series can be described thus: Anti-bacterial activity, agar diffusion method. Format: cell-based, Bacillus subtilis. The settings on record: at the concentration of 1 mg/ml. Here is the method: In an embodiment, anti-bacterial activity of the compounds now disclosed was determined according to CLSI guidelines. The following bacteria were used: reference strains E. coli ATCC 10536, Staphylococcus aureus ATCC 6538, Bacillus subtilis ATCC 6633 and Enterococcus faecalis ATCC 29212; clinical strains of E. coli and Pseudomonas aeruginosa isolated in our laboratory; and strains of Lactobacillus rhamnosus and Lactobacillus plantarum also isolated in our laboratory. The Minimum Inhibitory Concentration (MIC) was determined by the agar diffusion method, in plates of Mueller-Hinton agar or Rogosa agar (for Lactobacilli). Briefly, 10^8 cfu/ml bacterial suspensions were prepared in sterile water and spread in the culture media. Sterile disks containing different concentrations of P3 were placed on the inoculated surface. Plates were incubated at 37° C. for 24 h or 48 h. Lactobacilli were incubated at microaerophilic conditions. A negative control made of sterile water was used. Disks of amoxicillin and imipenem were used as positive controls.
On the technique in general: In agar diffusion tests the substance spreads into inoculated agar from a disc or well.

The subject of another series is TZM-bl cells. The series can be described thus: Cellular viability assay (alamarBlue) in TZM-bl cells. An excerpt: In an embodiment, the cellular cytotoxicity of 17 spiro-β-lactams was investigated in TZM-bl cells using the AlamarBlue assay as recommended by the manufacturer (Invitrogen, USA). TZM-bl, previously designated JC53-bl (clone 13) is a HeLa cell line. The parental cell line (JC.53) stably expresses large amounts of CD4, CCR5 and CXCR4. The TZM-bl cell line was generated from JC.53 cells by introducing separate integrated copies of the luciferase and […] genes under control of the HIV-1 promoter. The TZM-bl cell line is highly sensitive to infection with diverse isolates of HIV.
In an embodiment, the cellular viability assay was carried out as follows: the potential in vitro cytotoxicity of all BSS compounds was evaluated in TZM-bl cells. TZM-bl cells (10000 cells/well in 96-well plates) were incubated in absence or presence of serial-two-fold dilutions of the compounds in growth medium (GM), with starting concentration of 100 μg/ml and a final concentration of 0.781 μg/ml. After 48 hours, cell viability was examined with alamarBlue reagent (Invitrogen, USA) according to manufacturer's instructions. Briefly, 10 μl of alamarBlue reagent was added to each well. After 4 hours at 37° C., the fluorescence was measured in Tecan Infinite M200 (excitation wavelength 550 nm and emission wavelength 600 nm).
In an embodiment, at least two independent experiments have been performed for each cytotoxicity analysis.
In an embodiment, for each assay there were medium controls (only growth medium), cell controls (cells without test compound) and cytotoxicity controls (a compound that kill cells—SDS).
Background: Alamar Blue is a resazurin reagent that responds to reducing activity.

Where two headings read alike, the source gives them in different places.

For orientation: IC50 means the concentration that gives 50% inhibition. Low values mean higher potency, high ones lower potency. With `CC1(C)S[C@H]2N(C(=O)[C@]23CC=C(C(=O)OCc2ccccc2)[C@@H]3C(=O)c2ccccc2)[C@H]1C(=O)OC(c1ccccc1)c1ccccc1` [BSS-730A], the “anti-Plasmodium activity (in words)” value in the series with P. berghei liver stages is reported as “presented activity”. The same compound had an IC50 in the series with P. berghei liver stages (luciferase-expressing P. berghei in Huh7 cells, 48 h after infection) of 0.55 µM. In addition, in series [1], the inhibitory activity result is reported as “no inhibitory activity”. Besides, the CC50 in the series with TZM-bl cells came out at 76.8 µM.
In the case of `COC(=O)C1=C[C@@]2(N=N1)C(=O)N1[C@@H](C(=O)O)C(C)(C)S[C@@H]12` [BSS-593, (2,3′R,5R)-5′-(methoxycarbonyl)-3,3-dimethyl-7-oxo-4-thia-1-azaspiro[bicyclo[3.2.0]heptane-6,3′-pyrazole]-2-carboxylic acid], the “anti-Plasmodium activity (in words)” value in the series with P. berghei liver stages was “presented activity”. The inhibitory activity entry in series [1] was “no inhibitory activity”. In addition, the CC50 in the series with TZM-bl cells (Table 2, TZM-bl cells, 48 hours, alamarBlue) was found to be 158 µM; with TZM-bl cells (read-out: CC50 (cytotoxic concentration 50%), Table 1, TZM-bl cells, 48 hours, alamarBlue) it was 158 µM.

The values are drawn from patent US11666559B2, “Spiro-lactam compounds, process and uses thereof” (UNIVERSIDADE DE COIMBRA, priority 2017, dated 2023).
